Here are results for 27 molecules from patent US11992489B2, “Substituted tetrahydroquinoline compounds as indoleamine 2,3-dioxygenase inhibitors” (Merck Sharp & Dohme LLC, priority 2018, dated 2024).

Each structure is given as a SMILES string. pIC50: −log10 of the molar value.

IDO1, sequence (P14902 whole entry): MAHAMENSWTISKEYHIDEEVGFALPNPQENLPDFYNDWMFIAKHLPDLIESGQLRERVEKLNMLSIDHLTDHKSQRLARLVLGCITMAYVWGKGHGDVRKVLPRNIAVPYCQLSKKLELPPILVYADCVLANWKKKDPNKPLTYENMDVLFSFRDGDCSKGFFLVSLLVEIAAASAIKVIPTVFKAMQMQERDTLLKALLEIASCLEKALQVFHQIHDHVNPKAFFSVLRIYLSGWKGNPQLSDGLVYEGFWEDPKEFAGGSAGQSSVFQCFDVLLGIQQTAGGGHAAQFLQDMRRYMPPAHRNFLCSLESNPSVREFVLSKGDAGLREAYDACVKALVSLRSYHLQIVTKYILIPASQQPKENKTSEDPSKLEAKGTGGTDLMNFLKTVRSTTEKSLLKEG

The test deals with IDO1 (Homo sapiens, UniProt P14902). In words: IDO1 cellular assay in HeLa cells stimulated with IFNγ. It is filed as cell-based. As to conditions: IFNγ 100 ng/mL, 300 uM L-tryptophan, about 48 hours, fluorescence readout, read-out: HeLa Cell Potency, IC50. How it is done:
Biological Assays IDO1 Cellular Assay in HeLa Cells Stimulated with IFNγ
HeLa cells were cultured in complete HeLa culture medium (90% EMEM, 10% heat-inactivated fetal bovine serum) and expanded to about 1×10^9 cells. The cells were then collected and frozen down at 1×10^7 cells/vial in 1 mL frozen medium (90% complete HeLa culture medium, 10% DMSO).
Compounds to be tested were serially diluted in ten 3-fold steps in DMSO starting from 10 mM DMSO stocks in Echo low volume plate(s). Compound dilutions or DMSO alone were then dispensed from the dilution plate(s) into Greiner black 384-well assay plate(s) (catalog #781086, 50 nL/well) using an Echo 550 acoustic liquid handler (Labcyte).
Frozen HeLa cells were thawed and transferred into HeLa assay medium (99% complete HeLa culture medium, 1% Pen/Strep) with 20 mL medium/vial of cells. The cells were spun down at 250 g in a table top centrifuge for 5 min and suspended in same volume of HeLa assay medium. The cells were then counted and adjusted to a density of 2×10^5 cells/mL in HeLa assay medium. Sterile L-tryptophan were added to the cells with final concentration of 300 uM L-tryptophan. A small aliquot (2 mL/plate) of HeLa cells were set aside and were not treated with IFNγ, to serve as the Max-E control.
HeLa cells with and without IFNγ were dispensed to the respective wells of 384-well assay plates containing the compounds. The plates were incubated for about 48 hours at a 37° C., 5% CO2 incubator. Afterwards, 12 μL of 0.5 M methyl isonipecotate in dimethyl sulfoxide were added into each well and the plates were sealed and incubated at 37° C. without CO2 overnight. The plates were centrifuged for 1 min at 200×g. The resulting fluorescence was measured in a Spectramax plate reader (Molecular Devices) with a 400 nm excitation filter and a 510 nm emission filter.
The fluorescence intensity of each well was corrected for the background observed in wells with non-IFNγ-treated cells and was expressed as a fraction of the intensity observed in wells of IFNγ-treated cells and DMSO only. Potencies were calculated by linear least squares fit to the four parameter logistic IC50 equation.
Take `O=C(NC1(c2ccc3c(n2)CCCC3OCC2CC2)CC1)c1ccc(F)cc1` (single isomer, unassigned) [Example 20, N-(1-(5-(cyclopropylmethoxy)-5,6,7,8-tetrahydroquinolin-2-yl)cyclopropyl)-4-fluorobenzamide]: the pIC50 is 7.02.
Regarding `Cc1ccncc1OC1CCCc2nc(C3(NC(=O)c4ccc(F)cc4)CC3)ccc21` (stereo not drawn) [Example 6, 4-fluoro-N-(1-(5((4-methylpyridin-3-yl)oxy)-5,6,7,8-tetrahydroquinolin-2-yl)cyclopropyl)benzamide], the pIC50 was 8.00.
As to `O=C(NC1(c2ccc3c(n2)CCCC3c2cncc(F)c2)CC1)c1ccc(F)cc1` (stereo not drawn) [Example 24, 4-Fluoro-N-(1-(5-(5-fluoropyridin-3-yl)-5,6,7,8-tetrahydroquinolin-2-yl)cyclopropyl)benzamide], the pIC50 was 6.42.
Consider `CN(C)c1ncc(OC2CCCc3nc(C4(NC(=O)c5ccc(F)cc5)CC4)ccc32)cn1` (single isomer, unassigned) [Example 4, N-(1-(5-((2-(dimethylamino)pyrimidin-5-yl)oxy)-5,6,7,8-tetrahydroquinolin-2-yl)cyclopropyl)-4-fluorobenzamide], for which the pIC50 was 8.03.
In the case of `CCC(NC(=O)c1ccc(F)cc1)c1ccc2c(n1)CCCC2c1cncc(F)c1` (stereo not drawn) [Example 25, 4-fluoro-N-(1-(5-(5-fluoropyridin-3-yl)-5,6,7,8-tetrahydroquinolin-2-yl)propyl)benzamide] it was 5.66; in that of `O=C(NC1(c2ccc3c(n2)CCCC3c2cncc(C(F)(F)F)c2)CC1)c1ccc(F)cc1` (stereo not drawn) [Example 28, 4-fluoro-N-(1-(5-(5-(trifluoromethyl)pyridin-3-yl)-5,6,7,8-tetrahydroquinolin-2-yl)cyclopropyl)benzamide], 6.67; in that of `N#Cc1cccc(OC2CCCc3nc(C4(NC(=O)c5ccc(F)cc5)CC4)ccc32)c1` (stereo not drawn) [Example 12, N-(1-(5-(3-cyanophenoxy)-5,6,7,8-tetrahydroquinolin-2-yl)cyclopropyl)-4-fluorobenzamide], 8.24.
For the molecule `O=C(NC1(c2ccc3c(n2)CCCC3Oc2cncc(Cl)c2)CC1)c1ccc(F)cc1` (stereo not drawn) [Example 11, N-(1-(5-((5-chloropyridin-3-yl)oxy)-5,6,7,8-tetrahydroquinolin-2-yl)cyclopropyl)-4-fluorobenzamide], the pIC50 is 8.40.
As for `Cc1ncc(OC2CCCc3nc(C4(NC(=O)c5ccc(F)cc5)CC4)ccc32)cn1` (stereo not drawn) [Example 15, 4-fluoro-N-(1-(5-((2-methylpyrimidin-5-yl)oxy)-5,6,7,8-tetrahydroquinolin-2-yl)cyclopropyl)benzamide], the pIC50 was 6.89.
Regarding `O=C(NC1(c2ccc3c(n2)CCCC3Oc2cncc(Cl)c2)CC1)c1ccc(F)cc1` (stereo not drawn) [Example 7, N-(1-(5-((5-chloropyridin-3-yl)oxy)-5,6,7,8-tetrahydroquinolin-2-yl)cyclopropyl)-4-fluorobenzamide], the pIC50 is 8.27.
In the case of `O=C(NC1(c2ccc3c(n2)CCCC3Oc2ccc(F)nc2)CC1)c1ccc(F)cc1` (stereo not drawn) [Example 5, 4-fluoro-N-(1-(5((6-fluoropyridin-3-yl)oxy)-5,6,7,8-tetrahydroquinolin-2-yl)cyclopropyl)benzamide], the pIC50 is 7.91.
In the case of `Cc1ncc(OC2CCCc3nc(C4(NC(=O)c5ccc(F)cc5)CC4)ccc32)cn1` (stereo not drawn) [Example 13, 4-fluoro-N-(1-(5-((2-methylpyrimidin-5-yl)oxy)-5,6,7,8-tetrahydroquinolin-2-yl)cyclopropyl)benzamide], the pIC50 is 7.35.
For `O=C(NC1(c2ccc3c(n2)CCCC3Nc2cccc(Cl)c2)CC1)c1ccc(F)cc1` (stereo not drawn) [Example 17, N-(1-(5-((3-chlorophenyl)amino)-5,6,7,8-tetrahydroquinolin-2-yl)cyclopropyl)-4-fluorobenzamide], the pIC50 is 7.42.
Consider `CCC(NC(=O)c1ccc(F)cc1)c1ccc2c(n1)CCCC2c1cncc(C)c1` (stereo not drawn) [Example 27, 4-fluoro-N-(1-(5-(5-methylpyridin-3-yl)-5,6,7,8-tetrahydroquinolin-2-yl)propyl)benzamide], for which the pIC50 is 6.19.
For the molecule `O=C(NC1(c2ccc3c(n2)CCCC3Oc2ccc(F)nc2)CC1)c1ccc(F)cc1` (stereo not drawn) [Example 9, 4-fluoro-N-(1-(5((6-fluoropyridin-3-yl)oxy)-5,6,7,8-tetrahydroquinolin-2-yl)cyclopropyL)benzamide], the pIC50 was 7.61.
As for `N#Cc1cccc(OC2CCCc3nc(C4(NC(=O)c5ccc(F)cc5)CC4)ccc32)c1` (stereo not drawn) [Example 8, N-(1-(5-(3-cyanophenoxy)-5,6,7,8-tetrahydroquinolin-2-yl)cyclopropyl)-4-fluorobenzamide], the pIC50 is 8.67.
Regarding `Cc1nccc([C@@H]2CCCc3nc(C4(NC(=O)c5ccc(F)cc5)CC4)ccc32)n1` (single isomer, unassigned) [Example 22], the pIC50 was 7.38.
For `Cc1nccc(C2CCCc3nc(C4(NC(=O)c5ccc(F)cc5)CC4)ccc32)n1` (stereo not drawn) [Example 21, 4-Fluoro-N-(1-(5-(2-methylpyrimidin-4-yl)-5,6,7,8-tetrahydroquinolin-2-yl)cyclopropyl)benzamide], the pIC50 was 7.60.
As to `Cc1nccc([C@H]2CCCc3nc(C4(NC(=O)c5ccc(F)cc5)CC4)ccc32)n1` (single isomer, unassigned) [Example 23], the pIC50 is 7.37.
Consider `Cc1cncc(C2CCCc3nc(C4(NC(=O)c5ccc(F)cc5)CC4)ccc32)c1` (stereo not drawn) [Example 26, 4-fluoro-N-(1-(5-(5-methylpyridin-3-yl)-5,6,7,8-tetrahydroquinolin-2-yl)cyclopropyl)benzamide], for which the pIC50 was 6.74.
Take `O=C(NC1(c2ccc3c(n2)CCCC3Nc2cccc(Cl)c2)CC1)c1ccc(F)cc1` (stereo not drawn) [Example 16, N-(1-(5-((3-chlorophenyl)amino)-5,6,7,8-tetrahydroquinolin-2-yl)cyclopropyl)-4-fluorobenzamide]: the pIC50 was 7.86.
`Cc1ncc(C2CCCc3nc(C4(NC(=O)c5ccc(F)cc5)CC4)ccc32)cn1` (stereo not drawn) [Example 30, 4-fluoro-N-(1-(5-(2-methylpyrimidin-5-yl)-5,6,7,8-tetrahydroquinolin-2-yl)cyclopropyl)benzamide]: the pIC50 was 5.85.
`Cc1ccncc1OC1CCCc2nc(C3(NC(=O)c4ccc(F)cc4)CC3)ccc21` (stereo not drawn) [Example 10, 4-fluoro-N-(1-(5-((4-methylpyridin-3-yl)oxy)-5,6,7,8-tetrahydroquinolin-2-yl)cyclopropyl)benzamide]: the pIC50 is 6.97.
On to `O=C(NC1(c2ccc3c(n2)CCCC3OCC2CC2)CC1)c1ccc(F)cc1` (stereo not drawn) [Example 18, N-(1-(5-(cyclopropylmethoxy)-5,6,7,8-tetrahydroquinolin-2-yl)cyclopropyl)-4-fluorobenzamide], for which the pIC50 is 7.23.
In the case of `CN(C)c1ncc(OC2CCCc3nc(C4(NC(=O)c5ccc(F)cc5)CC4)ccc32)cn1` (stereo not drawn) [Example 14, N-(1-(5-((2-(dimethylamino)pyrimidin-5-yl)oxy)-5,6,7,8-tetrahydroquinolin-2-yl)cyclopropyl)-4-fluorobenzamide] it was 7.09.
For the molecule `CCC(NC(=O)c1ccc(F)cc1)c1ccc2c(n1)CCCC2c1cncc(C(F)(F)F)c1` (stereo not drawn) [Example 29, 4-fluoro-N-(1-(5-(5-(trifluoromethyl)pyridin-3-yl)-5,6,7,8-tetrahydroquinolin-2-yl)propyl)benzamide], the pIC50 is 6.07.
Next, `O=C(NC1(c2ccc3c(n2)CCCC3OCC2CC2)CC1)c1ccc(F)cc1` (single isomer, unassigned) [Example 19, N-(1-(5-(cyclopropylmethoxy)-5,6,7,8-tetrahydroquinolin-2-yl)cyclopropyl)-4-fluorobenzamide]: 7.18.

Broadly, the pIC50 is −log10 of the IC50, conventionally taken in molar units.
